Data taken from patent US20160115540A1, “PRODRUGS AND DRUGS” (Biogen MA Inc., priority 2013, published 2016).
Structures can show the parent of a compound that is named as a salt.

System: blood and tissues
Experiment: Transcriptional profiling, acute (single) dosing, EAE mice: blood and tissues
Assay type: in vivo
Details: for Number of differentially expressed genes identified: Brain / Number of differentially expressed genes identified: Cerebellum / Number of differentially expressed genes identified: Lymph Node / Number of differentially expressed genes identified: Spleen / Number of differentially expressed genes identified: Whole blood / Number of differentially expressed genes identified: Spinal Cord: EAE, Acute Dosing
From the text: EAE induction is generally performed by immunization with brain extracts, CNS proteins (such as myelin basic protein), or peptides from such protein emulsified in an adjuvant such as complete Freund's adjuvant, e.g., as described in Linker et al., Brain. 2011 March 134(Pt3): 678-92. […] FIG. 17 depicts exemplary immunophenotyping panels used to analyze various immune cell populations (e.g., T cells, T regulatory cells, NK cells, B cells, myeloid cells). […] The number of independent mice whose tissues were harvested for transcript profiling studies and whose data passed QC is shown in TABLE 15. Animals were exposed to CO2 and whole blood collected via cardiac puncture. Two 100 μl aliquots of whole blood were collected in 1.5 mL microcentrifuge tubes and snap frozen in liquid nitrogen. Peripheral (liver, spleen, kidney and jejunum) and CNS brain (cerebellum, hippocampus, striatum and cortex) tissues were harvested and snap frozen in liquid nitrogen, with special care taken to collect tissues of similar size and from the same location. All samples were stored at -80° C. until RNA extraction was conducted. For RNA preparation, frozen tissues were placed in 2 mL RNAse-free 96-well blocks with 1.5 mL QIAzol Lysis Reagent (QIAgen) and a 3.2 mm stainless steel bead (BioSpec Products, Bartlesville, Okla.). Tissues were disrupted for four cycles of 45 seconds in a Mini-Beadbeater (Biospec Products). RNA was extracted in chloroform and the aqueous phase was mixed with an equal volume of 70% ethanol. Extracted RNA was applied to RNeasy 96 plates and purified by the spin method according to the manufacturer's protocol (RNeasy 96 Universal Tissue Protocol, QIAgen, Hilden Germany). 50 ul of snap frozen mouse blood was re-suspended in lysis buffer with proteinase K and arrayed into deep-well plates for automated RNA extraction. RNA extractions were completed on […] (Beckman Coulter, Indianapolis, Ind.) using Agencourt RNAdvance Blood kit (Part number A35604) according to the manufacturer's specifications. RNA integrity was assessed using the HT RNA reagent kit (Part number 760410, Caliper Life Sciences, Hopkinton, Mass.) using a LabChip GX (PerkinElmer, Waltham, Mass.). RNA samples with a RQS score of >8.0 were considered high quality for downstream microarray processing. […] Washing and staining of the hybridized arrays were completed as described in the GeneChip Expression analysis technical manual for HT plate arrays using the Genechip® Array Station (Affymetrix, Santa Clara, Calif.) with modifications as described in […] et al. The processed GeneChip® plate arrays were scanned using GeneTitan scanner (Affymetrix, Santa Clara, Calif.). Affymetrix scans were subject to quality control (QC) measures. These tests included a visual inspection of the distribution of raw signal intensities and an assessment of RNA degradation, relative log expression (RLE), and normalized unscaled standard error (NUSE). All sample scans that passed these QC metrics were included in the analysis. […] Nucleic Acids Res 2003; 31:e15; Li C, et al. Genome Biol 2001; 2:[…]0032). […] Stat Appl Genet Mol Biol 2004; 3:Article3). […] Springer Science+Business Media 2005). […] Generally, no distinct sample groupings were apparent from this analysis; however, in the following cohorts, differences in EAE severity across the mice were manifest in global gene expression patterns: An example of this animal grouping is shown in FIG. 33 for the spinal cord from the chronically-dosed 7 h EAE mice. […] Three distinct groups of mice result from unsupervised clustering, and these animal groups correlate with the cumulative EAE score. […] Subsequent analyses for the cohorts listed above only included those animals with the most severe EAE scores; however, for the cohorts 'Spinal Cord, Acute Dosing, 7 h' and 'Spleen, Acute Dosing, 12 h,' there were an insufficient number of mice in the different treatment groups to perform such a sub-analysis. […]

[1] = 100 mpk DMF-vs-90 mpk MMF, 7 h after last dosing
[2] = 100 mpk DMF-vs-90 mpk MMF, 12 h after last dosing
[3] = 100 mpk DMF-vs-Vehicle, 7 h after last dosing
[4] = 100 mpk DMF-vs-Vehicle, 12 h after last dosing
[5] = lymph node, 100DMF-vs-Veh, 12 h
[6] = whole blood, 100DMF-vs-Veh, 7 h

In the case of COC(=O)/C=C/C(=O)OC [DMF, dimethyl fumarate], the “Number of differentially expressed genes identified: Brain” value (“Number of differentially … Brain” for short) [1] is reported as 0, the “Number of differentially expressed genes identified: Cerebellum” value (from here on “Number of differentially … Cerebellum”) [1] is reported as 0 and the “Number of differentially expressed genes identified: Lymph Node” value (shortened to “Number of differentially … Lymph Node”) [1] is reported as 0. For the same compound, the “Number of differentially expressed genes identified: Spleen” value [1] was 0, the “Number of differentially expressed genes identified: Whole blood” value (“Number of differentially … Whole blood” below) [1] was 0 and the “Number of differentially … Brain” value [2] was 0. For the same compound, the “Number of differentially … Cerebellum” value [2] was 0, the “Number of differentially … Lymph Node” value [2] was 0 and the “Number of differentially expressed genes identified: Spinal Cord” value [2] was 0. For the same compound, the “Number of differentially … Whole blood” value [2] was 0, the “Number of differentially … Brain” value [3] was 0 and the “Number of differentially … Cerebellum” value [3] was 0. The “Number of differentially … Lymph Node” value [3] was 7, the “Number of differentially expressed genes identified: Spleen” value [3] was 21 and the “Number of differentially … Whole blood” value [3] was 3. For the same compound, the “Number of differentially … Brain” value [4] was 0, the “Number of differentially … Cerebellum” value [4] was 0 and the “Number of differentially … Lymph Node” value [4] was 2. For the same compound, the “Number of differentially expressed genes identified: Spinal Cord” value [4] was 1, the “Number of differentially … Whole blood” value [4] was 0 and the differentially expressed genes (cerebellum, 100DMF-vs-90MMF, 7 h) was “None”. For the same compound, the differentially expressed genes (cerebellum, 100DMF-vs-90MMF, 12 h) was “None”, the differentially expressed genes (cerebellum, 100DMF-vs-Veh, 7 h) was “None” and the differentially expressed genes (cerebellum, 100DMF-vs-Veh, 12 h) was “None”. The differentially expressed genes (lymph node, 100DMF-vs-90MMF, 7 h) was “None”, the differentially expressed genes (lymph node, 100DMF-vs-90MMF, 12 h) was “None” and the “FC Aox1 (1419435_PM_at)” value (lymph node, 100DMF-vs-Veh, 7 h) was 2.16. The “FC F3 1417408_PM_at” value (lymph node, 100DMF-vs-Veh, 7 h) was 1.59, the “FC Gclm 1439050_PM_at” value (lymph node, 100DMF-vs-Veh, 7 h) was 1.53 and the “FC Nqo1 (1423627_PM_at)” value (lymph node, 100DMF-vs-Veh, 7 h) was 2.19. The “FC Pir (1429001_PM_at)” value (lymph node, 100DMF-vs-Veh, 7 h) was 1.52, the “FC Srxn1 (1419942_PM_at)” value (lymph node, 100DMF-vs-Veh, 7 h) was 1.71 and the “FC Srxn1 (1426875_PM_s_at)” value (lymph node, 100DMF-vs-Veh, 7 h) was 1.68. For the same compound, the “FC Aox1 (1419435_PM_at)” value [5] was 1.69, the “FC Nqo1 (1423627_PM_at)” value [5] was 1.69 and the differentially expressed genes (spinal cord, 100DMF-vs-90MMF, 12 h) was “None”. For the same compound, the “FC Blvrb (1451386_PM_at)” value (spinal cord, 100DMF-vs-Veh, 12 h) was 1.84, the differentially expressed genes (spleen, 100DMF-vs-90MMF, 7 h) was “None” and the “FC 1441413_PM_at” value (spleen, 100DMF-vs-Veh, 7 h) was 1.52. For the same compound, the “FC 1458902_PM_at” value (spleen, 100DMF-vs-Veh, 7 h) was 1.69, the “FC Aox1 (1419435_PM_at)” value (spleen, 100DMF-vs-Veh, 7 h) was 1.74 and the “FC Cat 1416430_PM_at” value (spleen, 100DMF-vs-Veh, 7 h) was 1.63. For the same compound, the “FC Dennd4a 1435975_PM_at” value (spleen, 100DMF-vs-Veh, 7 h) was 1.56, the “FC Dnmt31 1425035_PM_s_at” value (spleen, 100DMF-vs-Veh, 7 h) was 1.81 and the “FC Gclm 1439050_PM_at” value (spleen, 100DMF-vs-Veh, 7 h) was 2.02. For the same compound, the “FC Gsta3 (1423436_PM_at)” value (spleen, 100DMF-vs-Veh, 7 h) was 1.74, the “FC Gsta3 (1423437_PM_at)” value (spleen, 100DMF-vs-Veh, 7 h) was 1.55 and the “FC Higd1c /// Mettl7a1 /// Mettl7a2 1434150_PM_a_at” value (spleen, 100DMF-vs-Veh, 7 h) was 2.00. For the same compound, the “FC Il1f9 1425958_PM_at” value (spleen, 100DMF-vs-Veh, 7 h) was 2.33, the “FC Kif22 1437716_PM_x_at” value (spleen, 100DMF-vs-Veh, 7 h) was 1.53 and the “FC LOC677317 /// Me1 1416632_PM_at” value (spleen, 100DMF-vs-Veh, 7 h) was 1.52. The “FC Nqo1 (1423627_PM_at)” value (spleen, 100DMF-vs-Veh, 7 h) was 3.34, the “FC Pir (1429001_PM_at)” value (spleen, 100DMF-vs-Veh, 7 h) was 2.99 and the “FC Polh 1447837_PM_x_at” value (spleen, 100DMF-vs-Veh, 7 h) was 1.51. For the same compound, the “FC Srxn1 (1419942_PM_at)” value (spleen, 100DMF-vs-Veh, 7 h) was 2.08, the “FC Srxn1 (1426875_PM_s_at)” value (spleen, 100DMF-vs-Veh, 7 h) was 2.08 and the “FC Srxn1 (1451680_PM_at)” value (spleen, 100DMF-vs-Veh, 7 h) was 1.84. For the same compound, the “FC Tmem41b 1428586_PM_at” value (spleen, 100DMF-vs-Veh, 7 h) was 1.61, the “FC Ugt1a1 /// Ugt1a10 /// Ugt1a2 /// Ugt1a5 /// Ugt1a6a /// Ugt1a6b /// Ugt1a7c /// Ugt1a9 (1426261_PM_s_at)” value (spleen, 100DMF-vs-Veh, 7 h) was 1.51 and the differentially expressed genes (whole blood, 100DMF-vs-Veh, 12 h) was “None”. For the same compound, the differentially expressed genes (whole blood, 100DMF-vs-90MMF, 7 h) was “None”, the differentially expressed genes (whole blood, 100DMF-vs-90MMF, 12 h) was “None” and the “FC Dtx4 1436545_PM_at” value [6] was 1.72. For the same compound, the “FC Egln3 1418649_PM_at” value [6] was 1.82 and the “FC Rnf128 (1449036_PM_at)” value [6] was 1.62.
